In the NIST ThermoML archive (doi:10.1021/acs.jced.7b00192):

Experiment: molar heat capacity at constant pressure; mn = molality of the nth substance listed, in mol/kg
Conditions: 10000 kPa, Liquid, Large sample (1 g) DSC

[K+].[OH-] [potassium hydroxide] + O
molar heat capacity at constant pressure [J/K/mol]
Conditions | m1 = 0.201 | m1 = 0.5009 | m1 = 0.999 | m1 = 2.012 | m1 = 3 | m1 = 4.505 | m1 = 6.002
448.7 K | – | – | 75.9 | 74.44 | 73.28 | 72.37 | –
461 K | 78.47 | 77.61 | 76.51 | 74.86 | 73.71 | 72.74 | 72.04
473.4 K | 79.36 | 78.39 | 77.23 | 75.47 | 74.29 | 73.14 | 72.44
485.7 K | 80.4 | 79.34 | – | – | 74.75 | 73.56 | 72.83
485.8 K | – | – | 78 | 76.01 | – | – | –
498.1 K | 81.6 | 80.4 | 78.94 | 76.7 | 75.36 | 74.05 | 73.27
510.5 K | 83.06 | 81.72 | 80 | 77.49 | 75.91 | 74.43 | 73.69
522.8 K | 84.83 | 83.26 | 81.23 | – | 76.7 | 74.99 | 74.16
522.9 K | – | – | – | 78.41 | – | – | –
535.2 K | 87.02 | 85.12 | 82.83 | 79.52 | 77.5 | 75.54 | 74.51
547.6 K | 89.76 | 87.48 | 84.7 | 80.95 | 78.49 | 76.26 | 75.11
555 K | 91.77 | 89.19 | 86.04 | 81.81 | 79.19 | 76.73 | 75.41
564.9 K | 95.05 | 91.89 | 88.12 | 83.07 | 80.09 | 77.46 | 75.77
